These results are taken from patent publication US8653260B2, “Hydroxymethyl pyrrolidines as beta 3 adrenergic receptor agonists” (Merck Sharp & Dohme Corp., priority 2008, dated 2014).

In one experiment the test system is rats. Conditions: intravenous administration, cited from earlier work.
Experiment [1] concerns the target T1, human β3 adrenergic receptor (Homo sapiens, UniProt P13945).
T1 construct: expressed in transfected cells; host or cells: CHO cells, stably transfected
In words: Functional assay: cAMP production (LANCE) in CHO cells expressing β3 adrenergic receptor. Type of experiment: cell-based. The procedure:
Chinese hamster ovary (CHO) cells, stably transfected with the cloned β-adrenergic receptor (β1, β2 or β3) are harvested after 3 days of subculturing. Harvesting of cells is done with Enzyme-free Dissociation Media (Specialty Media). Cells are then counted and resuspended in assay buffer (Hank's Balanced salt solution supplemented with 5 mM HEPES, 0.1% BSA) containing a phosphodiesterase inhibitor (IBMX, 0.6 mM). The reaction is initiated by mixing 6,000 cells in 6 μL with 6 μL Alexa Fluor labeled cAMP antibody (LANCE™ kit) which is then added to an assay well containing 12 μL of compound (diluted in assay buffer to 2× final concentration). The reaction proceeds for 30 min at room temperature and is terminated by the addition of 24 μL detection buffer (LANCE™ kit). The assay plate is then incubated for 1 h at room temperature and time-resolved fluorescence measured on a Perkin Elmer Envision reader or equivalent. The unknown cAMP level is determined by comparing fluorescence levels to a cAMP standard curve.
The non-selective, full agonist β-adrenergic ligand isoproterenol is used at all three receptors to determine maximal stimulation. […] Data are analyzed using Microsoft Excel and Graphpad Prism or an internally developed data analysis software package.
On the technique in general: Changes in cAMP serve as a functional read-out for many G protein-coupled receptors.

[2] abbreviates: cAMP production, CHO cells, given as a range, read-out: human β3 functional activity.

Where two headings read alike, the source gives them in different places.

T1 sequence (P13945 whole entry): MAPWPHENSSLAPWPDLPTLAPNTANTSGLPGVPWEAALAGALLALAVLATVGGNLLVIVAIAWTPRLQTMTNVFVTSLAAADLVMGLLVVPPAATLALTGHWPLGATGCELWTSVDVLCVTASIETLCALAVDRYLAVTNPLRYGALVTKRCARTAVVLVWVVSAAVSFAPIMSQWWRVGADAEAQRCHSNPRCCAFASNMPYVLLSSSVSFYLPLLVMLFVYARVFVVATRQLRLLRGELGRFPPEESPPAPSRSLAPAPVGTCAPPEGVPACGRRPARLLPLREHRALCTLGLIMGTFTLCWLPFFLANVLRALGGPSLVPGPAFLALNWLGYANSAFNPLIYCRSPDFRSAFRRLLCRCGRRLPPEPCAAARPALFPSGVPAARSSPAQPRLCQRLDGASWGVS

In the case of `C[C@H](Cc1ccc2c(c1)OC(C(=O)[O-])(C(=O)[O-])O2)NC[C@H](O)c1cccc(Cl)c1.[Na+].[Na+]` [CL316243], the bladder capacity entry with rats (cystometric studies) is reported as “increases bladder capacity”. Besides, in the experiment on rats, the bladder pressure result is on record as “reduces bladder pressure”.
For the compound `CC(C(=O)Nc1ccc(C[C@@H]2CC[C@H]([C@H](O)c3ccccc3)N2)cc1)n1ccccc1=O` (single isomer, unassigned) [Example 203], in experiment [1] (Table 5, read-out: Human β3 Functional), the EC50 is 1 to 10 nM.
As to `Nc1nc2c(s1)CCC2C(=O)Nc1ccc(CC2CCC(C(O)c3ccc(F)cc3)N2)cc1` (single isomer, unassigned) [Example 308], the EC50 in experiment [1] (human β3 functional activity, given as ranges, read-out: Human β3 Functional) was 1 to 10 nM.
Regarding `O=C(Nc1ccc(C[C@@H]2CC[C@H]([C@H](O)c3ccccc3)N2)cc1)[C@@H]1CCc2cccc(=O)n21` (single isomer, unassigned) [Example 101], the EC50 in experiment [1] (setting [2]) was 1 to 10 nM.
On the same count and under the same terms, the value for `O=C(Nc1ccc(C[C@@H]2CC[C@H]([C@H](O)c3ccccc3)N2)cc1)C1CCc2cccc(=O)n21` (single isomer, unassigned) [Example 102] was under 1 nM.
As for `Cc1nc(CC(=O)Nc2ccc(C[C@@H]3CC[C@H]([C@H](O)c4ccccc4)N3)cc2)c(C)s1` [Example 10], the EC50 in experiment [1] (Table 4, text b832: human β3 functional activity, read-out: Human β3 Binding) fell in the range of 1 to 10 nM.
